Test results from ChEMBL document CHEMBL1201862, “PubChem BioAssay data set” (2004).
Values belong to the molecule of their own block, whether it stands above or below them. Activity calls are given as the source filed them.

Legend:
[1] = growth inhibition of yeast DHODH-expressing 3D7 parasites – SYBR Green, dry powder samples, dose response (AID 1159570); assay type: functional, cell-based;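 note: parasite growth measured after 72 hours of compound exposure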
[2] = P. falciparum Dd2 growth inhibitors, dose response, SYBR Green, cherry-picked samples (AID 1159567); assay type: functional, cell-based
[3] = Dd2 malaria parasite growth inhibition potency – SYBR Green, dry powder samples, dose response (AID 1159566); assay type: functional, cell-based;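 note: potency for growth inhibition with lower SYBR green DNA signal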
[4] = growth inhibition of PfATP4-mutant resistant parasites – NITD609-resistant line, SYBR Green, dry powder, dose response (AID 1159571); assay type: functional, cell-based;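 note: parasites synchronized at ring stage by sorbitol before testing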
[5] = CellTiter-Glo luminescence survival assay, SW480 colon tumor line, concentration-response curve, half-maximal inhibitory concentration (AID 1117338); assay type: functional
[6] = RKO cell viability reduction, dose response, CellTiter-Glo luminescence (AID 1117322); assay type: functional
[7] = cytotoxicity toward HCT116 cells – cell-based, CellTiter-Glo luminescence, IC50, dose response (AID 1117332); assay type: functional; conditions: HCT-116
[8] = SNU-C1 cell viability reduction, dose response, CellTiter-Glo luminescence (AID 1117323); assay type: functional, cell-based
[9] = cytotoxicity toward Colo320 cells – cell-based, CellTiter-Glo luminescence, IC50, dose response (AID 1117334); assay type: functional; conditions: COLO 320
[10] = cytotoxicity toward HT-29 cells – cell-based, CellTiter-Glo luminescence, IC50, dose response (AID 1117330); assay type: functional
[11] = Reduced DLD-1 viability, concentration-response, CellTiter-Glo luminescence (AID 1117352); assay type: functional
[12] = target: Aryl hydrocarbon receptor (Homo sapiens, UniProt P35869); assay: Luminescence-based cell-based high throughput dose response assay for activators of the Aryl Hydrocarbon Receptor (AHR). [Related pubchem assays: 2796 (Primary screen (AHR activators in singlicate)), 2845 (Confirmation screen (AHR activators in triplicate)), 434939 (Counterscreen (PXR activators in triplicate)), 2804 (Summary (AHR activators))]; assay type: ADME
[13] = target: T1, RNA-binding protein pos-1 (Caenorhabditis elegans, UniProt G5EF15); assay: disruptors of C. elegans POS-1 RNA interaction – biochemical, fluorescence polarization, dose response (AID 1964);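 note: purified POS-1 fused to maltose binding protein made in E. coli; potency of compounds blocking POS-1 binding to fluorescent RNA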
T1 sequence (G5EF15 whole entry): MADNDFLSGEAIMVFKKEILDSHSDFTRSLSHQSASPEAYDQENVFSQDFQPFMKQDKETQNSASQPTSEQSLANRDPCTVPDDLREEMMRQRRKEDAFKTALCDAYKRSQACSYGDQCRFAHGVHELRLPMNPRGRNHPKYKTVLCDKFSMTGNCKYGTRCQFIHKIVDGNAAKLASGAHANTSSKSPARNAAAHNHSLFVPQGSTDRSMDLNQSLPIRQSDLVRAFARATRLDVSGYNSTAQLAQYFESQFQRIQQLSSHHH

[14] = target: T2, Zinc finger protein mex-5 (Caenorhabditis elegans, UniProt Q9XUB2); assay: potency of MEX-5 RNA-binding blockers – biochemical, C. elegans, fluorescence polarization, dose response (AID 1960)
T2 sequence (Q9XUB2 whole entry): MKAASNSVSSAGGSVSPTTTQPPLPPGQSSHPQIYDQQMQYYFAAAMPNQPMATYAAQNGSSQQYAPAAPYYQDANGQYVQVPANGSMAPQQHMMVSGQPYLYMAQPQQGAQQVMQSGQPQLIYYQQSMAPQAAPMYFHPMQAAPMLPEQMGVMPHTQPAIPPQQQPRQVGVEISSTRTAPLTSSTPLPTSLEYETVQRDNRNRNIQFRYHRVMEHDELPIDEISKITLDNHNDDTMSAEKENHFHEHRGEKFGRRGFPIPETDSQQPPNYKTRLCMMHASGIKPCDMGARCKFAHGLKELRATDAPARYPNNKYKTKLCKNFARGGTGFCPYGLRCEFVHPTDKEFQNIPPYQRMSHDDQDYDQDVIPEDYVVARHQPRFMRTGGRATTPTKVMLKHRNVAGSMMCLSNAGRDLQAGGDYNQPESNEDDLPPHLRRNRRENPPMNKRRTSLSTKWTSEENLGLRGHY

[15] = target: Ephrin type-A receptor 4 (Mus musculus, UniProt Q03137); assay: EphA4 ligand-binding antagonists – biochemical, colorimetric, mouse EphA4, primary screen (AID 689); assay type: functional
[16] = system: CHO; assay: CHO cell viability loss, potency – luminescence, cytotoxicity control for TLR9-MyD88 binding inhibitor project, dose response (AID 588339); assay type: functional, cell-based, hamster; conditions: Cricetulus griseus;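 note: CHO cells stably coexpressing TLR9 and MyD88 fusions from primary screen; compound exposure lasted 48 hours before viability readout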
[17] = target: Beta Lactamase (Pseudomonas aeruginosa, UniProt Q932Y6); assay: BLA reporter interference, concentration series – BLA reporter cells, FRET fluorescence, artefact control for TLR9-MyD88 binding inhibitor project, dose response (AID 588341); assay type: cell-based;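 note: cell based assay in CHO-K1 cells stably expressing beta-lactamase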
[18] = target: T3, Heat shock factor protein 1 (Mus musculus, UniProt P38532); assay: decrease of HSF1-responsive luciferase luminescence – cell-based, NIH3T3, dose retest, confirmation (AID 2382); assay type: functional;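 note: NIH3T3 fibroblasts with HSF1-driven luciferase reporter stressed by proteasome inhibitor MG132; luminescence from HSF1-driven luciferase expression after 8 hours of MG132 stress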
T3 sequence (P38532 whole entry): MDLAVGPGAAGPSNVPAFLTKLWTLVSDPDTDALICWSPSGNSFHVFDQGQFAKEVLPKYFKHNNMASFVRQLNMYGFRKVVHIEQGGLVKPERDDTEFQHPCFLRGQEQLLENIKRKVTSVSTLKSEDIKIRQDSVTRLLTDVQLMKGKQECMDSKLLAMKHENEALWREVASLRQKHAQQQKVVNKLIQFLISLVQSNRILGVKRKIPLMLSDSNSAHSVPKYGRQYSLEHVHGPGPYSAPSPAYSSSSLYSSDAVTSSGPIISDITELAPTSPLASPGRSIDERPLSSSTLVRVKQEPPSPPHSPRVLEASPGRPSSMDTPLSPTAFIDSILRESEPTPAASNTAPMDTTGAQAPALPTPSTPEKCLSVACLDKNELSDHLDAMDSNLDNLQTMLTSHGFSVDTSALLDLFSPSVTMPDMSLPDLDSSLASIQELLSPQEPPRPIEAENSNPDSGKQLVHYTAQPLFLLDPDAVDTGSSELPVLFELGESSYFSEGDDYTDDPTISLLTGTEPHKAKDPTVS

[19] = target: T4, Microphthalmia-associated transcription factor (Homo sapiens, UniProt O75030); assay: reducers of TRPM1 reporter luminescence, concentration series – cell-based, SK-MEL-5, cherry-picked, set 3, MITF inhibitor project, dose response (AID 493073); assay type: functional;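 note: SK-MEL-5 melanoma cells with luciferase driven by the MITF target TRPM1 promoter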
T4 sequence (O75030 whole entry): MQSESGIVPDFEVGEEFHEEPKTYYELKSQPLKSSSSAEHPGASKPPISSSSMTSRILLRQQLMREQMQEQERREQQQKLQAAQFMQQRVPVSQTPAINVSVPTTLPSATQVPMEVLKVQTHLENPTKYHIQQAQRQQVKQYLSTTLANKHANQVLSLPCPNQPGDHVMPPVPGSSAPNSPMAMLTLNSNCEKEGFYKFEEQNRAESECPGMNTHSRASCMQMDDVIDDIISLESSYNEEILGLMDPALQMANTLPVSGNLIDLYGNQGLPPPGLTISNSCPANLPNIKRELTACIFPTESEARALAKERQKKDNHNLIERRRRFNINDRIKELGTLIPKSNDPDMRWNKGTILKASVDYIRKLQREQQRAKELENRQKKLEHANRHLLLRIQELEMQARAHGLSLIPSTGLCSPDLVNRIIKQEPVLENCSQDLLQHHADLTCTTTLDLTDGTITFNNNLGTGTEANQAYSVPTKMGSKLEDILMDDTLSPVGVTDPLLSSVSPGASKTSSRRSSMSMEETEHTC

[20] = blockers of HIV-1 envelope-mediated cell-cell fusion – cherry-pick, dose response (AID 652057); assay type: functional, cell-based
[21] = viability loss in CEM21 cells – cell-based, CellTiter-Glo luminescence, cherry-picked, cytotoxicity control for viral fusion inhibitor project, dose response (AID 652042); assay type: functional;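 note: potency for signal decrease meaning cytotoxicity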
[22] = blockers of HIV-1 ZM109 envelope-driven cell-cell fusion – HeLa effector, CEM target cells, luciferase, cherry-pick, dose response (AID 652058); assay type: functional, cell-based;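 note: luciferase signal from HIV-1 Env mediated cell-cell fusion of effector and target cells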
[23] = off-target signal loss in HeLa-CEM21 co-culture – HeLa F-luc CTL cells, cherry-picked, counter-screen for HIV-1 Env fusion inhibitor project, dose response (AID 652040); assay type: functional, cell-based;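 note: potency for signal decrease marking cytotoxic or nonspecific inhibition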
[24] = HIV-1 AD8 envelope cell-cell fusion blockers – cherry-pick, dose response (AID 652062); assay type: functional, cell-based;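 note: luciferase signal from cell-cell fusion driven by HIV-1 clade B AD8 Env; potency is for inhibitors of fusion seen as a drop in luminescence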
[25] = target: Protein Tat (Human immunodeficiency virus type 1 group M subtype B (isolate HXB2)(HIV-1), UniProt P04608); assay type: functional;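 note: tat binding to TAR RNA read out by fluorescence polarization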
[26] = viability loss in THP-1 monocytes – THP-1 cells, cytotoxicity control for Vif-APOBEC3G degradation inhibitor project, dose response (AID 1117359); assay type: functional; conditions: THP-1
[27] = Luminescence-based cell-based high throughput dose response assay to identify activators of the DAF-12 from the parasite S. stercoralis (ssDAF-12).; assay type: functional
[28] = target: T5, Oxysterols receptor LXR-beta (Homo sapiens, UniProt P55055); assay: LXR agonists, Gal4 luciferase reporter, dose response, counter-screen for ssDAF-12 agonist project, cell-based, luminescence, HEK293, S. stercoralis campaign (AID 720737); assay type: functional; conditions: read-out: IC50 (the source's name)
T5 sequence (P55055 whole entry): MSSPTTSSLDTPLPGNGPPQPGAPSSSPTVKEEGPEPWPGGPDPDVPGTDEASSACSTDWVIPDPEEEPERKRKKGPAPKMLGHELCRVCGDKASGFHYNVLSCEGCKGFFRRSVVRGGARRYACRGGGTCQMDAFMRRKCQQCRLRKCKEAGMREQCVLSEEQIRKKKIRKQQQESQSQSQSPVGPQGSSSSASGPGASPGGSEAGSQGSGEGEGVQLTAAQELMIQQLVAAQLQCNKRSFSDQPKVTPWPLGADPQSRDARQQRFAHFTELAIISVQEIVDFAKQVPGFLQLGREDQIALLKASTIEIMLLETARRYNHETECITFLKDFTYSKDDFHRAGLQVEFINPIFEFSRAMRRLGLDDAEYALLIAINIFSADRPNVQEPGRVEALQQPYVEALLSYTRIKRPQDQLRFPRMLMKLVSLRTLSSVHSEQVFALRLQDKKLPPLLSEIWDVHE

[29] = target: T6, Cytochrome P450 2C19 (Homo sapiens, UniProt P33261); assay: qHTS Assay for Inhibitors and Substrates of Cytochrome P450 2C19. [Related pubchem assays: 410 ]; assay type: ADME; conditions: read-out: Potency
[30] = target: T6, Cytochrome P450 2C19; assay: Cytochrome panel assay with activity outcomes. Panel member name: p450-cyp2c19 Compounds with AC50 equal or less than 10 uM are considered active; assay type: functional; conditions: read-out: AC50
[31] = target: Cytochrome P450 2C9 (Homo sapiens, UniProt P11712)
[32] = HIV-1 Vif–A3G interaction blockers – biochemical, TR-FRET, GST-Vif 1-94, biotin-A3G peptide, dose response retest, primary screen (AID 1117319); assay type: functional;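 note: TR-FRET signal of purified GST-Vif binding a biotinylated A3G peptide; inhibitors lower the FRET signal by blocking Vif and A3G binding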

T6 sequence (P33261 whole entry): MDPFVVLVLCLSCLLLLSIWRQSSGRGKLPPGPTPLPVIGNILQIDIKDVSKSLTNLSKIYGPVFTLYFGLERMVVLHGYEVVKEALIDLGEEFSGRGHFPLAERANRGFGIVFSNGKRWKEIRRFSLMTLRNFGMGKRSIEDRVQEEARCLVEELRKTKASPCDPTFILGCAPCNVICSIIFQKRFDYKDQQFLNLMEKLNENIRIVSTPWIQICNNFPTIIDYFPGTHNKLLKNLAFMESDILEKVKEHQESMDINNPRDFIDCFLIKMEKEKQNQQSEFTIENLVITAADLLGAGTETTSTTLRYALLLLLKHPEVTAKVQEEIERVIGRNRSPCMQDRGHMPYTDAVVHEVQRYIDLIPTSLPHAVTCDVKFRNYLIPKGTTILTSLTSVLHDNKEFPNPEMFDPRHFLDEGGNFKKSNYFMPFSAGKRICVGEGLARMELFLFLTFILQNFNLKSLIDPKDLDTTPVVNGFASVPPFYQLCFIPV
Ephrin type-A receptor 4, sequence (Q03137 whole entry, the tested form may be a part): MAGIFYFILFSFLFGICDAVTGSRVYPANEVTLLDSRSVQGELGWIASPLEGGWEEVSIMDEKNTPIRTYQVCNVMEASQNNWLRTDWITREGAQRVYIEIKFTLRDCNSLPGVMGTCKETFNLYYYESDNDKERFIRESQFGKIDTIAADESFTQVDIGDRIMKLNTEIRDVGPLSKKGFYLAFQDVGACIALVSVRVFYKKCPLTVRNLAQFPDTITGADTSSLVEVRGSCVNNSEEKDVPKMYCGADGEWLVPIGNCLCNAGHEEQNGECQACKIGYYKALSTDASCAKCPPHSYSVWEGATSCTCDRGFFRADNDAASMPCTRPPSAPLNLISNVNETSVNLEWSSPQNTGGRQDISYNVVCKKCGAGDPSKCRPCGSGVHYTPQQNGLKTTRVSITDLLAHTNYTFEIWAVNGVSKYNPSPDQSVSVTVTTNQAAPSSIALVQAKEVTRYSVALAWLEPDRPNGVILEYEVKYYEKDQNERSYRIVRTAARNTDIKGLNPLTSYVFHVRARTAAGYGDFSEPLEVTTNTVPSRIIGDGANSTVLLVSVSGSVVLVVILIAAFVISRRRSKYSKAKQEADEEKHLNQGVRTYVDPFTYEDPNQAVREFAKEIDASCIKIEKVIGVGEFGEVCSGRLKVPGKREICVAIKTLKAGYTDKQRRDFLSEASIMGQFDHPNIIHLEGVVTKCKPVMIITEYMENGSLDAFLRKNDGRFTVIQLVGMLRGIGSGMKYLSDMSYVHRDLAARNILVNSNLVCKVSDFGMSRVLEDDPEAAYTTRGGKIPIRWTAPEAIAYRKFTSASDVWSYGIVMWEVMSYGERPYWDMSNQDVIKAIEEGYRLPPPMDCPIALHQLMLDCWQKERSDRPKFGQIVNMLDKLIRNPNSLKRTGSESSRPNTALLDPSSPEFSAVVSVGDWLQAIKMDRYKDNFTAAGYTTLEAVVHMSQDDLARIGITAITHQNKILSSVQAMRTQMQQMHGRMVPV
Protein Tat, sequence (P04608 whole entry): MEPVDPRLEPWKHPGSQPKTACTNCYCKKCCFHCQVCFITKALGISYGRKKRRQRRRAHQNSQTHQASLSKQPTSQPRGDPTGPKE
Aryl hydrocarbon receptor, sequence (P35869 whole entry, the tested form may be a part): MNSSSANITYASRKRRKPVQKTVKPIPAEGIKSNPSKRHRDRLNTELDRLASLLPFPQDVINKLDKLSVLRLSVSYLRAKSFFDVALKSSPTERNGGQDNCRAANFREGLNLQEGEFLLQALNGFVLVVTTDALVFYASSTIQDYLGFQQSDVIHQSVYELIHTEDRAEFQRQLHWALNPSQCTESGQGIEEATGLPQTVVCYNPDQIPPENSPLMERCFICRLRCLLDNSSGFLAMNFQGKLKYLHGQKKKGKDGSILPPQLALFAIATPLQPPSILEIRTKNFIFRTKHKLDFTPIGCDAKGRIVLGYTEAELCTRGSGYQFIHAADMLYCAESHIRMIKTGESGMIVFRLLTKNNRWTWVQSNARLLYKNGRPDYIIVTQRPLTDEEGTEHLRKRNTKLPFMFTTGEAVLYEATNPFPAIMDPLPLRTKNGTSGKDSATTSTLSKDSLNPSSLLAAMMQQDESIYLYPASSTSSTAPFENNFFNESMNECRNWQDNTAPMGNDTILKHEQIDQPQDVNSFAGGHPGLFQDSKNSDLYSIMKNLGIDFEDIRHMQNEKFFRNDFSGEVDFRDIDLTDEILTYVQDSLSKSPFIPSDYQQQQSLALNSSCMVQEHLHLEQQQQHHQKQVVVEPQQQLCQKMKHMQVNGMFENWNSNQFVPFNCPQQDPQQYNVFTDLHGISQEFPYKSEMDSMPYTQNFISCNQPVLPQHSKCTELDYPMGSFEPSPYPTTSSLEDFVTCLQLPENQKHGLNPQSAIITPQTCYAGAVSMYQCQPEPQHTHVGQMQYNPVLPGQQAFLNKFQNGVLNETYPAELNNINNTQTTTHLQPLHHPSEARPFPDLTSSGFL
Cytochrome P450 2C9, sequence (P11712 whole entry): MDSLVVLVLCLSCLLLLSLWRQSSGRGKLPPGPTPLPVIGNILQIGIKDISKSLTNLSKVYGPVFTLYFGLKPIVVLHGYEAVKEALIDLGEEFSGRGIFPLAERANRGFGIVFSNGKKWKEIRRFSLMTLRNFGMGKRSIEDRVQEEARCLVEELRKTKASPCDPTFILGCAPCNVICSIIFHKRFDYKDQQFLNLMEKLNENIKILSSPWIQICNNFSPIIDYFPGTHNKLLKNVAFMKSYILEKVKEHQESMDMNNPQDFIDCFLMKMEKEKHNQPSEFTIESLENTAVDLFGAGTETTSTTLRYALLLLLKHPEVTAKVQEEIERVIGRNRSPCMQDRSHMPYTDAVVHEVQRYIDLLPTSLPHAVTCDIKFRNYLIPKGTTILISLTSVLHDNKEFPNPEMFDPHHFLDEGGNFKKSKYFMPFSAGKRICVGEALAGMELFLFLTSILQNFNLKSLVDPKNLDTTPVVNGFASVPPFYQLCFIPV
Beta Lactamase, sequence (Q932Y6 whole entry): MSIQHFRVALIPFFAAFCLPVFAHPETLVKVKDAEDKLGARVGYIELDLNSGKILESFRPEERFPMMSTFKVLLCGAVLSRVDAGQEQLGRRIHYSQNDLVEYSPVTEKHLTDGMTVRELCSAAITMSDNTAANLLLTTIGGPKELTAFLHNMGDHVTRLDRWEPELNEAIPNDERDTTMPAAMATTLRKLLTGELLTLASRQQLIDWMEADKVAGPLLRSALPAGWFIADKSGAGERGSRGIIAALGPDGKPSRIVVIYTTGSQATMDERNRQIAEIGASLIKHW

SMILES: O=C(Cc1ccccc1)N1CC(=O)N2[C@H](CO)[C@H](c3ccc(C#Cc4ccccc4)cc3)[C@H]2C1
AC50 [1]: 0.0554 µM (active)
AC50 [2]: < 0.3 µM (active)
AC50 [3]: 0.0291 µM (active)
AC50 [4]: 0.0288 µM (active)

SMILES: OC[C@@H](O)[C@H](O)[C@H](O)[C@@H](O)CO [GALACTITOL]
IC50 [5]: > 20 µM (inactive)
IC50 [6]: > 20 µM (inactive)
IC50 [7]: > 20 µM (inactive)
IC50 [8]: > 20 µM (inactive)
IC50 [9]: > 20 µM (inactive)
IC50 [10]: > 20 µM (inactive)
IC50 [11]: > 20 µM (inactive)

SMILES: CN(C)c1ccc(/C=C/C(=O)c2cccc(Br)c2)cc1
EC50 [13]: > 300 µM (not active)
EC50 [14]: > 300 µM (inconclusive)
IC50 [15]: > 100 µM (not active)
IC50 [16]: > 49.7 µM (inactive)
IC50 [17]: 5.6 µM (active)

SMILES: CN(c1ccc2nc3ccccc3c(=O)n2n1)C1CCCCC1
EC50 [18]: < 0.16 µM (active)
AC50 [19]: 1.29 µM (active)
AC50 [20]: 2.13 µM (active)
AC50 [21]: 26.9 µM (active)
AC50 [22]: 31.1 µM (active)
AC50 [23]: 6.41 µM (active)
AC50 [24]: 6.5 µM (active)
IC50 [25]: > 100 µM (active)
CC50 [26]: 36.6 µM (active)

SMILES: FC(F)(F)c1cc(-c2ccco2)nc(NCc2cccnc2)n1
IC50 [25]: > 100 µM (active)

SMILES: CC1CCCCN1CCNC(=O)CC1Oc2ccccc2NC1=O (stereo not given)
IC50 [27]: > 67.5 µM (inactive)
EC50 [28]: > 67.5 µM (inactive)

SMILES: COc1cc2c(cc1OC)-c1c(O)c(OC)cc3c1[C@@H](C2)N(C)CC3
AC50 [29]: 25.1 µM (inconclusive)

SMILES: COc1ccc(NC(=O)NC(C)C2CC3CCC2C3)cc1 (stereo not given)
IC50 [27]: > 67.5 µM (inactive)
EC50 [28]: > 67.5 µM (inactive)

SMILES: COc1cc(C(=O)Nc2cccc(-c3nc4ncccc4o3)c2C)cc(OC)c1OC
IC50 [32]: > 100 µM (active)

More lines, main results first:

EC50 [12]: 1.17 µM (active)
SMILES: Cc1c(-c2cc[nH]n2)cc(NC(=O)c2ccc(Cl)cc2)c(=O)n1N

EC50 [12]: 3.38 µM (active)
SMILES: O=S(=O)(NNc1ncc(C(F)(F)F)cc1Cl)c1ccc(F)cc1F

IC50 [15]: > 100 µM (not active)
SMILES: Cc1ccc(CNC(=O)CN2CCC(C(N)=O)CC2)cc1

AC50 [29]: 25.1 µM (inconclusive)
AC50 [30]: 5.01 µM (inconclusive)
AC50 [31]: inconclusive
SMILES: O=C(C1CCCCC1)N1CC(=O)N2CCc3ccccc3[C@@H]2C1 [PRAZIQUANTEL, (R)-]

IC50 [32]: > 60.7 µM (active)
SMILES: Cc1cc(C)cc(NC2=CC(=O)CC(c3ccco3)C2)c1 (stereo not given)
CC50 [26]: 25.1 µM (active)
